According to publication PMC5264272 (EBioMedicine, 2016):

Columns and labels:
murine Treg cells = assay: Treg suppression assay with Tregs pre-treated in vitro; format: cell-based; details: 10 μM, 2 h pre-treatment of Tregs, washing, 3-day suppression assay
[1] = test system: human multiple myeloma cells; details: immunodeficient mice; ref Chauhan et al., 2012; cited from earlier work

CC(=O)c1cc([N+](=O)[O-])c(Sc2cccc(Cl)c2Cl)s1 [P5091]
effect on murine Treg function in vitro (murine Treg cells): almost completely abrogated Treg function | growth of human multiple myeloma cells as xenografts [1]: direct effects on the growth
